Experimental data published in US6630490B2, “Methods for treatment of disease-induced peripheral neuropathy and related conditions” (NeoTherapeutics, Inc., priority 2000, dated 2003).

Tests used:
unoperated animals [1] = settings: rat, in vivo; cited from earlier work
[2] = tested on: unoperated rats, mDCN-T13 heat, pinch and touch fields; settings: systemically injected NGF; Diamond et al., 1992; Pertens et al., 1999; cited from earlier work
[3] = tested on: control and diabetic rats; experiment: Thermal response latency in control and diabetic rats; format: in vivo, rat; settings: for thermal hyperalgesia (week 4) and hypoalgesia (week 8): diabetic rats
Protocol: (§1) Induction of diabetes: Female, adult, Sprague-Dawley rats (250-275 g) were fasted overnight prior to the intraperitoneal injection of a freshly made solution of streptozotocin in 0.9% saline to deliver a dose of 50 mg/kg body weight. Food was restored and animals left for 3 days before determination of glucose levels in a blood sample obtained by tail prick. Animals with blood glucose levels >15 mmol/l were considered diabetic and used in the study. Treatment with the AIT-082 began on the day that hyperglycemia was confirmed. […] If they presented as diabetic then they were added to the study, if not they were omitted.
Thermal response latency: Rats were placed in an observation chamber on the surface (floor temperature 30° C.) of a modified Hargreaves Apparatus (UARD, San Diego Calif.) and allowed to acclimate for 5 minutes. For measurement of thermal response latency, a heat source (delivering 4.5 amps to give a paw withdrawal latency of approximately 10 seconds in control rats) was maneuvered underneath the hind paw. The heat source was turned on manually and a stop clock activated until it shut off automatically when the paw was moved (24 sec cut off time). The procedure was repeated 4 times on the same paw at 5 minute intervals and the median of values 2-4 used to represent the thermal response latency.

[4] = tested on: rats with isolated mDCN-T13 field receiving anti-NGF; experiment: Sprouting blocked by anti-NGF treatment, rescue by AIT-082; format: in vivo, rat
Text: (§2) “Isolation” of sensory fields: This procedure, the initial step in the study of collateral sprouting and was done as described in Diamond et al. (1992). Its purpose was to isolate the cutaneous innervation territory, or field, of a selected nerve within a vast surround of denervated back skin. The nerve used was the medial branch of the left dorsal cutaneous nerve (DCN), at segmental level T13 (mDCN-T13). The isolation of its field was achieved by surgically eliminating on the left side the 4 DCNs immediately rostral and caudal to DCN-T13 (respectively T9-T12 and L1-L4), the lateral branch of DCN-T13, and the 4 lateral cutaneous nerves supplying the flank skin adjacent to the DCN-T13 territory.
Mapping of sensory fields: As described in Nixon et al. (1984) and Doucette and Diamond (1987), the borders of the isolated mechano-nociceptive and heat-nociceptive fields, subserved respectively by the Aδ and C fibers mDCN-T13, were determined by systematically applying across the skin forceps pinches (for mechano-nociception) and brief applications of a 60° C. heat probe (for heat-nociception); the presence of nociceptive endings is indicated during these procedures when the stimuli elicit the “CTM reflex” response, a contraction of the underlying cutaneus trunci muscle, which causes a characteristic and easily recognized skin twitch (Theriault and Diamond, 1988). […]

unoperated animals [5] = experiment: Detection of hyperalgesia; format: in vivo, rat
Protocol: Detection of hyperalgesia: Nociceptive responses were studied in lightly restrained animals as described in […] et al. (1999), using the latency of foot withdrawal from a 49° C. footbath, the temperature of the footbath at which withdrawal was initiated, and the heat thresholds for evoking the “CTM” reflex from back skin (see above). Hyperalgesia is defined here as a lowering of the threshold of a nociceptive stimulus required to produce a reflex response, and/or a reduction in the latency of that response. Administration of AIT-082: AIT-082 was obtained from NeoTherapeutics Inc., Irvine, Calif., USA. A 50 mg/ml solution in sterile 0.9% NaCl was made up freshly every three days. The standard administration protocol was a daily i.p. injection of 50 mg/kg AIT-082.

[6] = tested on: unoperated rats, mDCN-T13 heat, pinch and touch fields; experiment: Nociceptive nerve sprouting in normally innervated skin (mDCN-T13 field mapping); format: in vivo, rat
Text: as §2
(§3) Mapping of sensory fields: As described in Nixon et al. (1984) and Doucette and Diamond (1987), the borders of the isolated mechano-nociceptive and heat-nociceptive fields, subserved respectively by the Aδ and C fibers mDCN-T13, were determined by systematically applying across the skin forceps pinches (for mechano-nociception) and brief applications of a 60° C. heat probe (for heat-nociception); the presence of nociceptive endings is indicated during these procedures when the stimuli elicit the “CTM reflex” response, a contraction of the underlying cutaneus trunci muscle, which causes a characteristic and easily recognized skin twitch (Theriault and Diamond, 1988). The low-threshold (“touch”) fields were measured electrophysiologically as described by Jackson and Diamond (1984). The DCN-T13 was placed across bipolar platinum electrodes that fed into a preamplifier and thence to an oscilloscope and audio amplifier. Brushing innervated skin with a fine bristle generates impulses in the large myelinated Aβ axons, producing audible responses that disappear abruptly as the bristle crosses into denervated territory. The areas of the cutaneous territories of the three sensory modalities studied (“pinch”, “heat” and “touch”) were measured using the MCID image analysis system (Imaging Research, Inc., St. Catharines, Ontario, Canada). […]

[7] = tested on: control and diabetic rats; experiment: Formalin test in control and diabetic rats; format: in vivo, rat
Protocol: as §1
Formalin test: Rats were restrained manually and formalin (50 μl of 0.2% solution) injected sub-dermally into the hindpaw dorsum. Rats were then placed in an observation chamber and flinching behaviors counted in 1 minute blocks every 5 minutes for 1 hour.

[8] = tested on: control and diabetic rats, sciatic nerve; experiment: Sensory nerve conduction velocity (SNCV) in control and diabetic rats; format: in vivo, rat
Protocol: as §1
Nerve Conduction Velocity (NCV): Rats were anesthetized with halothane (4% in O2 for induction, 2-3% for maintenance) and the sciatic nerve exposed via an incision in the flank followed by separation of underlying musculature by blunt dissection. A thermistor probe was placed adjacent to the nerve and the wound closed with a skin clamp and a second, rectal, probe was positioned. Nerve and rectal temperature was maintained at 37° C. by a heating lamp and thermal pad connected to a temperature regulator and the thermistor probes. […] The distance between the two sites of stimulation was measured using surface calipers and NCV calculated as […]. NCV measurements were made in triplicate and the median used to represent the NCV. The thermistor probes were removed, the skin incision closed with wound clips and coated with Betadine and the animal withdrawn from halothane and monitored until it recovers consciousness. Rats were then returned to their cages with free access to food and water.

[9] = tested on: rats with isolated mDCN-T13 field; experiment: Collateral sprouting of nociceptive nerves into adjacent denervated skin; format: in vivo, rat
Text: as §2, §3

[10] = unoperated rats, 50 mg/kg daily for 20 days, versus saline

For “NGF: nerve growth factor, exogenous, systemically injected”, the hyperalgesia (unoperated animals [1]) is given as “causes hyperalgesia” and the “sprouting in normal skin” value [2] is given as “induces sprouting in normal skin”.

In the case of O=C(CCn1cnc2c(=O)[nH]cnc21)Nc1ccc(C(=O)O)cc1 [AIT-082, N-4-carboxyphenyl-3-(6-oxohydropurin-9-yl) propanamide], the thermal response latency ([3]; control rats) is reported as “without effect”, the “thermal hyperalgesia (week 4) and hypoalgesia (week 8)” value [3] is reported as “dose-dependently prevented both hyperalgesia and hypoalgesia” and the “thermal hyperalgesia (week 4) and hypoalgesia (week 8)” value ([3]; high dose 100 mg/kg) is reported as “completely prevented both hyperalgesia at week 4 and hypoalgesia at week 8”. For the same molecule, the “sprouting under supra-threshold ("high") anti-NGF treatment” value ([4]; daily AIT-082 plus about 5-fold anti-NGF dose, fields after 22 days) was “sprouting continued to be absent”, the “sprouting under threshold ("low") anti-NGF treatment” value ([4]; daily AIT-082 plus daily anti-NGF, pinch and heat fields after 22 days) was “totally rescued the sprouting” and the “hyperalgesia, threshold temperature for foot withdrawal from a hot probe” value (unoperated animals [5]; FIG. 4(a)) was “does not cause hyperalgesia”. The “hyperalgesia, threshold temperature for evoking the CTM reflex in dorsal skin” value (unoperated animals [5]; FIG. 4(b)) was “does not cause hyperalgesia”, the “hyperalgesia, latency of foot withdrawal from a 49° C. hot bath” value (unoperated animals [5]; FIG. 4(c)) was “does not cause hyperalgesia” and the “hyperalgesia (a number of recognized tests)” value (unoperated animals [5]; standard AIT-082 administration, at any time during or following treatment) was “failed to provide any evidence for the occurrence of this phenomenon”. For the same molecule, the “limited dose-response study for inducing nociceptive sprouting” value ([6]; daily i.p. injection of 50 mg/kg, not illustrated) was “well above threshold for inducing nociceptive sprouting, but below saturating levels”, the “nociceptive fields, pinch and heat (area of innervation)” value [6, 10] was “expanded significantly” and the “touch fields (NGF-insensitive Aβ fibers)” value [6, 10] was “unaffected”. For the same molecule, the formalin-evoked flinching ([7]; control and diabetic rats) was “dose-dependently reduced”, the “formalin-evoked hyperalgesia by phase” value ([7]; diabetic rats) was “suppression of hyperalgesia was notable in phases 1, Q, and 2a” and the SNCV ([8]; control rats) was “no effect”. The SNCV deficit ([8]; diabetic rats, week 4) was “no effect”, the SNCV ([8]; diabetic rats, week 8) was “dose-dependent improvement” and the “amount by which field expansions in the AIT-082 sprouting group exceeded controls” value ([9]; after 20 days of treatment, comparison from raw data of FIGS. 1 and 2) was “approximately equal to the expansion in field areas induced in unoperated animals”. The “expansion of nociceptive fields into adjacent denervated skin relative to control group” value ([9]; daily AIT-082 after field isolation, mapping every 3 or 4 days) was “increased expansion of the nociceptive fields” and the “time at which increased field expansion became apparent” value ([9]; daily AIT-082 versus saline) was “about 13 days post-isolation”.
